According to patent publication US20180264134A1, “A COMPOSITION OF GOLD NANOPARTICLES HAVING ANTIMICROBIAL PEPTIDES BOUND ON THEIR SURFACE FOR USE THE TREATMENT OF WOUND HEALING OR IN THE TREATMENT OF ISCHEMIC OR VASCULAR DISEASES OR IN THE TREATMENT OF SKIN DISORDERS” (priority 2015, published 2018):
Values joined by “and” are separate entries in the source; they are usually repeats but may differ in a detail not shown here. Equal values may be shown once.

How the values were obtained:
HaCaT keratinocyte cells = assay: Internalization mechanism (endocytosis inhibitors / siRNA, flow cytometry); format: cell-based, human; conditions: vs scrambled siRNA
Procedure: In an embodiment the HaCaT keratinocyte cells were cultured on 24 well plates (1×10^6 cells/well) and inhibited by one of the following chemicals during 30 min before adding a suspension of Rhodamine-labelled NPs (15 μg/mL): dynasor (100 μM), cytochalasin D (100 μM), nocodazole (25 uM), filipin III (1 μM) and polyinosinic acid (100 μg/mL), 5-(N-ethyl-N-isopropyl)amiloride (EIPA), dextran sulfate. The inhibitor concentrations were based in values reported in literature and further validated by us to have no cytotoxic effect over the period of the assay (6 h), as confirmed by viability assay. The incubation of the cells with NPs for different times was performed in the presence of the inhibitor. As controls, HaCaT keratinocyte cells without NPs and cells incubated with NPs without inhibitor were used. […] Cells were then evaluated as before.
In an embodiment the NP uptake mechanism was also studied on HaCaT keratinocyte cells by silencing specific proteins of clathrin-mediated endocytosis (CLTC and LDLR), caveolin-mediated endocytosis (CAV1), GEEC-CCLIC pathways (CDC42) and macropinocytosis (RAC1 and CTBP1) and scavenger receptor (SCARA3) by siRNA (Thermo Fisher). […] In all FACS analysis, a total of 10,000 events were recorded per run. […]

[1] = system: full-thickness excisional wounds; assay: In vivo wound healing, splinted mouse full thickness excisional model; set-up: species or system RjHan:NMRI female mice
Excerpt: For measure some parameters In vivo wound healing and tissue collection can be use. 6-7 week old RjHan:NMRI female mice (Janvier, BE) were anesthesized with isoflurane and the dorsal area was shaved using a depilatory cream a day before the surgery. Two 0.5-mm-thick silicone (Grace biolabs, UK) donut-shaped splints (OD=20 mm, ID=10 mm) were fixed on either side of the dorsal midline, approximately 3.5 cm from the ears and positioned with 6-0 nylon sutures (Monosof, USA). Full-thickness excisional wounds were made using an 8 mm round skin biopsy punch (Kai Europe GMBH, DE), centered within each splint. […] Wound areas were quantified using the Jmicro Vision software developed by N. Roduit at University of Geneva, Switzerland. Wound sizes are expressed as percentage of the initial respective wound. […]
In an embodiment, histology and immunohistochemistry assay were conducted: the wound halves were immediately fixed with paraformaldehyde (4% in PBS, 0.01 M, pH 7.4) and after 24 h, the samples were transferred to PBS buffer at 4° C. […] A semi-quantitative estimation of MT green staining was performed using FRIDA software (developed by Johns Hopkins University, USA) and the staining values were expressed as staining per unit area. […]

[2] = system: chorioallantoic membrane (CAM); assay: Chorioallantoic membrane (CAM) assay; format: in vivo; conditions: CAM vs vehicle
Procedure: In an embodiment, the evaluation of the pro-angiogenic properties of LL37-Au NPs. […] The formation of new blood vessels is a prerequisite of tissue repair and wound healing. Therefore, it was evaluated the inductive properties of LL37 and LL37-Au NPs on human umbilical vein endothelial cells (HUVECs) to secrete vascular endothelial growth factor (VEGF165) (FIG. 14b). […] Next, the assessment of the pro-angiogenic activity of LL37 and LL37-Au NPs in a chorioallantoic membrane (CAM) assay was made.

Compound: CC[C@H](C)[C@H](NC(=O)[C@H](CCCCN)NC(=O)[C@H](CCC(=O)O)NC(=O)[C@H](CCCCN)NC(=O)[C@H](CO)NC(=O)[C@H](CCCCN)NC(=O)[C@H](CCCNC(=N)N)NC(=O)[C@H](Cc1ccccc1)NC(=O)[C@H](Cc1ccccc1)NC(=O)[C@H](CC(=O)O)NC(=O)CNC(=O)[C@H](CC(C)C)NC(=O)[C@@H](N)CC(C)C)C(=O)NCC(=O)N[C@@H](CCCCN)C(=O)N[C@@H](CCC(=O)O)C(=O)N[C@@H](Cc1ccccc1)C(=O)N[C@@H](CCCCN)C(=O)N[C@@H](CCCNC(=N)N)C(=O)N[C@H](C(=O)N[C@H](C(=O)N[C@@H](CCC(N)=O)C(=O)N[C@@H](CCCNC(=N)N)C(=O)N[C@H](C(=O)N[C@@H](CCCCN)C(=O)N[C@@H](CC(=O)O)C(=O)N[C@@H](Cc1ccccc1)C(=O)N[C@@H](CC(C)C)C(=O)N[C@@H](CCCNC(=N)N)C(=O)N[C@@H](CC(N)=O)C(=O)N[C@@H](CC(C)C)C(=O)N[C@H](C(=O)N1CCC[C@H]1C(=O)N[C@@H](CCCNC(=N)N)C(=O)N[C@H](C(=O)N[C@@H](CCC(=O)O)C(=O)N[C@@H](CO)C(=O)N[C@@H](CS)C(N)=O)[C@@H](C)O)C(C)C)[C@@H](C)CC)C(C)C)[C@@H](C)CC [LL37]
- reduction of uptake upon SCARA3 siRNA knockdown (HaCaT keratinocyte cells): 60%
- wound healing ([1]; after 10 days, LL37 70 μg per wound, listed as LL37 peptide): 50% and 70%
- MPO activity in wound tissue ([1]; day 10): significantly decreased
- pro-angiogenic activity (vessel growth) [2]: induced vessel growth
